Reference: PMC8388125, “Kinetic and Structural Characterization of the Self-Labeling Protein Tags HaloTag7, SNAP-tag, and CLIP-tag” (Biochemistry, 2021)
Numbering of substitutions follows the chain as printed. Several values for one entry are separate records, joined by “and”; a condition that tells them apart may be missing. Equal entries are not always repeated.

How the values were obtained:
[1] = target: T1, HaloTag7 (HT7) (Rhodococcus sp., UniProt P59336, A155T/A167V/A224E/C128F/C176G/D78G/E160K/E257K/G292T/H272N/K175M/K195N/L47V/L88M/N227D/P291S/S2A/S58T/T264A/V172T/Y273L/Y87F); experiment: HT7 labeling kinetics via stopped flow (fluorescence anisotropy); format: biochemical
T1 construct: made in house; host or cells: E. coli BL21(DE3)-pLysS
Description: Labeling kinetics of HT7 with CA-TMR, CA-JF549, CA-CPY, CA-LIVE580, and CA-JF669 and labeling kinetics of HOB with CA-TMR were measured by recording fluorescence anisotropy changes over time using a BioLogic SFM-400 stopped-flow instrument (BioLogic Science Instruments, Claix, France) in a single-mixing configuration at 37 °C. HT7 protein and substrates in activity buffer were mixed in a 1:1 stoichiometry to reach a recordable speed for these fast reactions and to increase the information content of the traces. Concentrations were varied from 0.125 to 1 μM. The anisotropy of the free substrate was measured to obtain a baseline.
(§1) Kinetic stopped-flow data were preprocessed using a custom R script.[36],[37] Recorded pretrigger time points were removed, and time points were adjusted to start at time zero. Values from replicates were averaged. The anisotropy of the free dye was calculated by averaging anisotropy values of the baseline measurements. Preprocessed data were fitted to a kinetic model (eqs 5 and 6) described by differential eqs 7–10 using the DynaFit software.[38] The anisotropy of the free dye and the mixing delay of the stopped-flow machine were set as fixed offset and delay parameters in DynaFit. It was assumed that the protein substrate complex and the reacted product are contributing equally to the anisotropy signal. […] Standard deviations (normal distribution verified) and confidence intervals of fitted parameters were estimated with the Monte Carlo method[39] with standard settings (N = 1000, 5% worst fits discarded). In the case of SNAP kinetics with BG-TMR, the substrate concentration was fitted by DynaFit to rule out quantification errors of the BG-quenched fluorophore. Accurate fitting of the concentration was ensured by including conditions in which protein is limiting and no maximum FP value was reached.

[2] = target: T2, HT7^D106A (Rhodococcus sp., UniProt P59336, A155T/A167V/A224E/C128F/C176G/D106A/D78G/E160K/E257K/G292T/H272N/K175M/K195N/L47V/L88M/N227D/P291S/S2A/S58T/T264A/V172T/Y273L/Y87F); experiment: Affinity of HT7^D106A for CA substrates by fluorescence polarization; format: binding; details: HT7^D106A
T2 construct: made in house; host or cells: E. coli BL21(DE3)-pLysS
Description: Binding affinities of HT7^D106A or HOB^D106A for chloroalkane (CA) substrates were determined by fluorescence polarization (FP, eq 1) measurements using a microplate reader (Spark20M, Tecan Group AG, Männedorf, Switzerland). The fluorescent substrates (10 nM) were titrated against different protein concentrations (0–250 μM) in activity buffer supplemented with 0.5 g/L bovine serum albumin (BSA). Assays were performed in black low-volume nonbinding 384-well plates (Corning Inc., Corning, NY) with a final volume of 20 μL. Obtained FP values were averaged and fitted to a single-site binding model (eq 2) to estimate Kd values for each fluorescent substrate. The FP value of each dye fully reacted with the native HT7 was used to improve fitting of the upper plateau of the curves by adding an extra data point at a protein concentration of 0.1 M. [drawing 1] 1 where FP is the fluorescence polarization, I∥ is the fluorescence intensity parallel to the excitation light polarization, I⊥ is the fluorescence intensity perpendicular to the excitation light polarization, and G is the grating factor (G = I∥/I⊥). [drawing 2] 2 where FPmin is the fluorescence polarization of the free fluorophore (lower plateau), FPmax is the maximal fluorescence polarization of fully bound fluorophore (upper plateau), Kd is the dissociation constant, and [protein] is the protein concentration.
Free binding energies were calculated from Kd values according to eq 4: [drawing 4] 4 where ΔG is the free binding energy, R is the universal gas constant, T is the temperature, and Kd is the dissociation constant.

[3] = target: T3, SNAP-tag (SNAP) (Homo sapiens, UniProt P16455, A127T/A154D/C150Q/C62A/G131K/G132T/G153L/K125A/K32I/L33F/M134L/N157G/Q115S/Q116H/R128A/R135S/S151G/S152D/S159E); experiment: SNAP competitive labeling kinetics against BG-Alexa488; format: biochemical; details: nonfluorescent substrates, competition with BG-Alexa488
T3 construct: made in house; host or cells: E. coli BL21(DE3)-pLysS
T3 sequence (P16455 1-182 K32I/L33F/C62A/Q115S/Q116H/K125A/A127T/R128A/G131K/G132T/M134L/R135S/C150Q/S151G/S152D/G153L/A154D/N157G/S159E limits assumed): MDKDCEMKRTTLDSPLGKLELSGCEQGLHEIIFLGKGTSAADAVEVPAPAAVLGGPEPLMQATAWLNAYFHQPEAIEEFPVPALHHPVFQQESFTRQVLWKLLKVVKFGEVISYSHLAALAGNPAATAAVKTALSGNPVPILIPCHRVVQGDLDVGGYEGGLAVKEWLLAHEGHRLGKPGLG
Description: Competitive kinetics were measured by recording FP over time using a microplate reader in a manner analogous to that for HT7 competition kinetics described above using 100 nM BG-Alexa488 as the fluorescent substrate in SNAP-FP buffer.
Data were fitted to a simplified kinetic competition model (eqs 19 and 20) described by differential eqs 21–25 using DynaFit. The dead time of the measurements and baseline FP value were put in as fixed parameters. Standard deviations (normal distribution verified) and confidence intervals of fitted parameters were estimated with the Monte Carlo method with standard settings (N = 1000, 5% worst fits discarded). [drawing 19] 19 [drawing 20] 20 where P is the SLP protein, S is the fluorescent SLP substrate, I is the nonfluorescent SLP substrate (inhibitor), PS is the protein–fluorescent substrate conjugate, and PI is the protein–nonfluorescent substrate conjugate. [drawing 21] 21 [drawing 22] 22 [drawing 23] 23 [drawing 24] 24 [drawing 25] 25

[4] = target: T4, SNAP^C145A (Homo sapiens, UniProt P16455, A127T/A154D/C145A/C150Q/C62A/G131K/G132T/G153L/K125A/K32I/L33F/M134L/N157G/Q115S/Q116H/R128A/R135S/S151G/S152D/S159E); experiment: Affinity of SNAP^C145A for nonfluorescent substrates via FP competition assay against CP-TMR; format: binding; details: FP competition against CP-TMR, room temperature
T4 construct: made in house; host or cells: E. coli BL21(DE3)-pLysS
T4 sequence (P16455 1-182 K32I/L33F/C62A/Q115S/Q116H/K125A/A127T/R128A/G131K/G132T/M134L/R135S/C145A/C150Q/S151G/S152D/G153L/A154D/N157G/S159E limits assumed): T3 sequence (P16455 1-182 K32I/L33F/C62A/Q115S/Q116H/K125A/A127T/R128A/G131K/G132T/M134L/R135S/C150Q/S151G/S152D/G153L/A154D/N157G/S159E limits assumed) with C145A
Description: Binding affinities of SNAP^C145A for BG, CP, BG-Ac, CP-Ac, and BC-Ac were obtained as previously described for HT7 by titrating 5 μM protein and 50 nM CP-TMR against nonfluorescent substrate concentrations ranging from 150 nM to 1.5 mM. Experimental conditions and data analysis were identical despite the fact that 1 mM DTT was added to the buffer and the assay was performed at room temperature.

[5] = target: T3, SNAP-tag (SNAP); experiment: SNAP labeling kinetics via microplate reader (FP over time); format: biochemical; details: SNAP, plate reader, kinetic model 1
Description: (§2) Labeling kinetics of SNAP and CLIP substrates were measured by recording FP over time using a microplate reader in a manner analogous to that of HT7 labeling kinetics described above with the following changes. The fluorescent substrate concentration was fixed to 20 nM, and protein concentrations were varied from 15 to 900 nM. Measurements were performed in SNAP-FP buffer.
(§3) Kinetic data from microplate reader assays were fitted to a simplified kinetic model (eq 13) described by differential eqs 14–16 using DynaFit. The dead time of the measurements and baseline FP value were put in as fixed parameters. Standard deviations (normal distribution verified) and confidence intervals of fitted parameters were estimated with the Monte Carlo method with standard settings (N = 1000, 5% worst fits discarded). In the case of BG, CP, and BC kinetics, the substrate concentration was fitted by DynaFit to rule out quantification errors of the BG, CP, or BC fluorophores. Accurate fitting of the concentration was ensured by including conditions under which protein is limiting and no maximum FP value was reached.

[6] = target: T5, CLIP-tag (CLIP) (Homo sapiens, UniProt P16455, A121V/A127T/A154D/C150Q/C62A/G131N/G132T/G153S/K125A/K32I/L33F/M134L/M60I/N157P/Q115S/Q116H/R128A/R135D/S151G/S152D/S159L/Y114E); experiment: CLIP labeling kinetics via microplate reader (FP over time); format: biochemical; details: CLIP, plate reader, kinetic model 1
T5 construct: made in house; host or cells: E. coli BL21(DE3)-pLysS
T5 sequence (P16455 1-182 K32I/L33F/M60I/C62A/Y114E/Q115S/Q116H/A121V/K125A/A127T/R128A/G131N/G132T/M134L/R135D/C150Q/S151G/S152D/G153S/A154D/N157P/S159L limits assumed): T3 sequence (P16455 1-182 K32I/L33F/C62A/Q115S/Q116H/K125A/A127T/R128A/G131K/G132T/M134L/R135S/C150Q/S151G/S152D/G153L/A154D/N157G/S159E limits assumed) with M60I, Y114E, A121V, K131N, S135D, L153S, G157P, E159L
Description: as §2, §3

[7] = target: T6, hAGT (human O^6-alkylguanine-DNA alkyltransferase) (Homo sapiens, UniProt P16455); experiment: hAGT labeling kinetics via microplate reader (FP over time); format: biochemical
T6 construct: StrepTag-II (N); enterokinase cleavage site (N); His10 (C); made in house; host or cells: E. coli BL21(DE3)-pLysS
T6 sequence (P16455 1-207): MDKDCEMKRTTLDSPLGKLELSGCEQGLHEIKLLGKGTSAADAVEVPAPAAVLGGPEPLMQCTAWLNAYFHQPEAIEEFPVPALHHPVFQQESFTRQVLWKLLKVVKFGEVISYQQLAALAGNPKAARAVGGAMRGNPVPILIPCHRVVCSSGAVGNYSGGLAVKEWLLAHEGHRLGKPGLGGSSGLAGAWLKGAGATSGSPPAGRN
Description: as §2, §3

[8] = target: T3, SNAP-tag (SNAP); experiment: SNAP labeling kinetics via stopped flow (fluorescence anisotropy); format: biochemical; details: model 2
Description: Labeling kinetics of SNAP with BG-TMR were measured via stopped-flow in a manner analogous to that for HT7 kinetics described above; however, the final substrate concentration was fixed at 2 μM, and the protein concentration was varied from 1.875 to 50 μM. The activity buffer was supplemented with 1 mM DTT.
as §1

T1 sequence (P59336 other isoform, or with tags, fused parts or gaps with the stated changes): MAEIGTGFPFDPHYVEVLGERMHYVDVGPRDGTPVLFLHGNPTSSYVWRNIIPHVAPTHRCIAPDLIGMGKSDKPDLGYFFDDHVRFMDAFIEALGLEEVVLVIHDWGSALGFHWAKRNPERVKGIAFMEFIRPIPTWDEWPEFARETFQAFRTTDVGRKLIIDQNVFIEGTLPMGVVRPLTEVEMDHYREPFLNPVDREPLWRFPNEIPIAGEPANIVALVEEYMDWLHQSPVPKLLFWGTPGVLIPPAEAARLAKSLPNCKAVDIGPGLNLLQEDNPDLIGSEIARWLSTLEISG
T2 sequence (P59336 other isoform, or with tags, fused parts or gaps with the stated changes): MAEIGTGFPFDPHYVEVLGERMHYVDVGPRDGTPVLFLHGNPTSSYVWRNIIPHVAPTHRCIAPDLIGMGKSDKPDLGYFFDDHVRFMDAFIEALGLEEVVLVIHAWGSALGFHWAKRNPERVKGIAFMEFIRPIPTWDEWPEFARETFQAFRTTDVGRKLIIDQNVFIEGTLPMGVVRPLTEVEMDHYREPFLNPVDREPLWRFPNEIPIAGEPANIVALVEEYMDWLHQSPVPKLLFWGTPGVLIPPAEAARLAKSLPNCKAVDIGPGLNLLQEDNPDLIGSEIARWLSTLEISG

Compound: CN(C)c1ccc2c(c1)C(C)(C)C1=CC(=[N+](C)C)C=CC1=C2c1cc(C(=O)NCCOCCOCCCCCCCl)ccc1C(=O)[O-] [CA-CPY, chloroalkane-PEG-carbopyronine]
- Kd [1]: 0.046 µM
- k2 (± S.D.) ([1]; HT7, stopped flow, model 2): 9.9 s-1 and 9.86 (± 0.73) s-1
- k-1 (± S.D.) ([1]; HT7, stopped flow, model 2): 7.60 (± 0.98) s-1
- fold decrease in affinity of the 5-substituted compared to the 6-substituted rhodamine substrate [2]: 22.7 fold

Compound: CC(=O)NCc1ccc(COc2cc(Cl)nc(N)n2)cc1 [CP-Ac]
- kapp (value ± standard deviation) [3]: (3.45 ± 0.38) × 10^3 M^–1 s^–1
- Kd [4]: 201 µM

Compound: CN(C)c1ccc2c(-c3cc(C(=O)NCc4ccc(COc5cc(Cl)nc(N)n5)cc4)ccc3C(=O)[O-])c3ccc(=[N+](C)C)cc-3oc2c1 [CP-TMR]
- kapp (value ± standard deviation) [5]: (7.69 ± 0.01) × 10^4 M^–1 s^–1
- kapp (value ± standard deviation) [6]: (7.22 ± 0.04) × 10^0 M^–1 s^–1
- times slower labeling of hAGT than of SNAP ([7]; hAGT vs SNAP): 20 times
- kapp (value ± standard deviation) ([7]; hAGT, plate reader, model 1): (3.13 ± 0.01) × 10^3 M^–1 s^–1
- fold higher k–1 than BG-TMR [8]: 8.8 fold
- k2 (± S.D.) [8]: 1.58 (± 0.04) s-1
- k-1 (± S.D.) [8]: 8.96 (± 0.71) s-1
